According to patent US8188277B2, “Aromatic compounds for suppressing the generation of collagen” (Otsuka Pharmaceutical Co., Ltd., priority 2004, dated 2012):
Read-outs that look alike come from different tables or passages of the source.

Key:
[1] = system: LI90 cells, a human stellate cell line; assay: Collagen synthesis inhibition (3H-proline incorporation) in TGF-β1-stimulated LI90 cells; type: cell-based; conditions: 10 pM h-TGF-β1, 16 hours with test compound, 3H-proline labelling 24 hours, concentration at which T/C = 0.5, read-out: Collagen synthesis inhibitory activity IC50
Description: The cultured cells were then washed with D-PBS(−) (DULBECCO's phosphate buffered saline), and subsequently further cultured for 3 days in MEM (Eagle's minimum essential medium) supplemented with 0.1% fetal bovine serum. The cultured cells were again washed with D-PBS(−), and cultured for 16 hours in MEM (0.1% fetal bovine serum with respect to a total MEM volume) which contained a test compound and 10 pM h-TGF-β1 (human transforming growth factor β1). Next, the cultured LI90 cells were washed with D-PBS(−), and cultured for 24 hours in MEM containing ^3H-proline (radioactive labelled compound) and 0.25 mM ascorbic acid. The produced collagen was labelled with RI (radioactive isotope). From this culture supernatant, an acid-soluble fraction was extracted. Radioactivity was measured for this fraction. The measured value was taken to be the collagen synthesis activity.
Radioactivity of the culture supernatant cultured with the test compound was compared with that of the culture supernatant cultured without the test compound to calculate a collagen synthesis inhibitory activity (T/C) and determine a concentration (μM) at which collagen synthesis was inhibited by 50% (IC50=a concentration of the test compound at which T/C corresponded to 0.5). T/C=(Radioactivity of culture supernatant cultured with the test compound)/(radioactivity of culture supernatant cultured without the test compound)

IC50 ([1]; Homo sapiens) | melting point | SMILES | also measured
– | – | O=C(Nc1ccc(Oc2ccc(N3CCC(CC(=O)N4CCN(Cc5ccc6c(c5)OCO6)CC4)CC3)cc2)nc1)c1ccc(C(F)(F)F)cc1 [Example No. 319, N-[6-(4-{4-[2-(piperonyl-piperazin-1-yl)-2-oxoethyl]piperidin-1-yl}phenoxy)-pyridin-3-yl]-4-trifluoromethylbenzamide] | IC50 [1]: 1.9 nM
79 nM | – | O=C(Nc1ccc(Cl)c(Cl)c1)c1ccc(Oc2ccc(CCC(=O)N3CCN(Cc4ccc5c(c4)OCO5)CC3)cc2)nc1 [Example No. 2100, 6-{4-[3-(4-piperonylpiperazin-1-yl)-3-oxopropyl]phenoxy}-N-(3,4-dichlorophenyl)nicotinamide] | –
22 nM | – | O=C(Nc1ccc(Oc2ccc(CCC(=O)N3CCN(Cc4ccc5c(c4)OCO5)CC3)cc2)nc1)c1ccc(C(F)(F)F)cc1 [Example No. 1039, N-(6-{4-[3-(4-piperonylpiperazin-1-yl)-3-oxopropyl]phenoxy}pyridin-3-yl)-4-trifluoromethylbenzamide] | –
7.8 nM | – | Cc1cc(N(C)CC(=O)N2CCN(Cc3ccc4c(c3)OCO4)CC2)ccc1Oc1ccc(NC(=O)c2ccc(C(F)(F)F)cc2)cn1 [Example No. 1503, N-[6-(4-{[2-(4-piperonylpiperazin-1-yl)-2-oxoethyl]methylamino}-2-methylphenoxy)pyridin-3-yl]-4-trifluoromethylbenzamide] | –
– | 171 to 173 °C | O=C(Nc1ccc(Oc2ccc(N3CCN(C(=O)COc4ccccc4)CC3)cc2)cc1)c1ccc(Cl)c(Cl)c1 [compound 2052] | –
– | 111 to 113 °C | Cc1cc(N(C)CC(=O)N2CCN(Cc3ccccc3)CC2)ccc1Oc1ccc(NC(=O)c2ccc(Cl)c(Cl)c2)cn1 [compound 1516] | –
– | 178 to 180 °C | CCN(CC(=O)N1CCN(Cc2ccc3c(c2)OCO3)CC1)c1ccc(Oc2ccc(NC(=O)c3ccc(C(F)(F)F)cc3)cn2)cc1 [compound 774] | –
– | 122 to 124 °C | Cc1cc(N2CCCN(Cc3ccc4c(c3)OCO4)C2=O)ccc1Oc1ccc(NC(=O)c2ccc(Cl)c(Cl)c2)cn1 [compound 1184] | –
– | 149 to 151 °C | CCN(CC(=O)N1CCN(Cc2ccc3c(c2)OCO3)CC1)c1ccc(Oc2ccc(NC(=O)c3ccc(Cl)c(Cl)c3)cn2)c(F)c1 [compound 728] | –
